Values joined by “and” are separate entries in the source; they are usually repeats but may differ in a detail not shown here. Equal values may be shown once.
Columns and labels:
Experiment in all cases: PathHunter β-arrestin GpcrMAX assay
Type in all cases: cell-based
DRD5 = molecular target: T1, DRD5 (Homo sapiens, UniProt P21918)
T1 construct: purchased DiscoveRx (Eurofins) gpcrMAX PathHunter β-arrestin panel
In short: (§1)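 The biosensor panel measured β-arrestin recruitment through enzyme fragment complementation. Taveuniamide F was applied at 20 µM in agonist as well as antagonist format.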

OPRM1 = molecular target: T2, OPRM1 (Homo sapiens, UniProt P35372)
T2 construct: purchased DiscoveRx (Eurofins) gpcrMAX PathHunter β-arrestin panel
In short: as §1

PTHR2 = molecular target: T3, PTHR2 (Homo sapiens, UniProt P49190)
T3 construct: purchased DiscoveRx (Eurofins) gpcrMAX PathHunter β-arrestin panel
In short: as §1

CCR9 = molecular target: T4, CCR9 (Homo sapiens, UniProt P51686)
T4 construct: host or cells: CHO-K1
T4 sequence (P51686 1-369): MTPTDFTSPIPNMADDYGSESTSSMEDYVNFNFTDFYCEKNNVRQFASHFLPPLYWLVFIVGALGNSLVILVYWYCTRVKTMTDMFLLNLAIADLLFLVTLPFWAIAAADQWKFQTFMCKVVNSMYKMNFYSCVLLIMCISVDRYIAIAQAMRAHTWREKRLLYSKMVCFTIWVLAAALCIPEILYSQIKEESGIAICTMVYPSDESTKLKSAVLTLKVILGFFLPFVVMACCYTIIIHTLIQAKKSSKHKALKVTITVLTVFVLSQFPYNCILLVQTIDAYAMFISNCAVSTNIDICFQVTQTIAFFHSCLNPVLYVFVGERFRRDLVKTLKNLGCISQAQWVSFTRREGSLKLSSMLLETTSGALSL
Method: (§2) GpcrMAX panel biosensor assays were used to characterize taveuniamide F (4, 20 µM) (agonist and antagonist mode). The experiments were carried out by DiscoveRx Corporation (Fremont, CA, USA) as described before, using PathHunter β-arrestin enzyme fragment complementation (EFC) technology.
(§3) Dose–response curves were obtained by subjecting taveuniamide F (4) to a secondary antagonist screen utilizing ten GPCR biosensor assays (Arrestin) against the following targets: GPR119, NPSR1b, HTR2C, CCR9, CHRM4, GPR120, HTR2A, GPR103, CNR1, and CNR2. Stably transfected HEK293 cells expressing GPR119, U2OS cells expressing NPSR1b, HTR2C and HTR2A, and CHO-K1 cells expressing the rest of the mentioned receptors, were incubated with 4 for 30 min. The assays were performed at 10-point concentrations using 3-fold serial dilutions in duplicate, where the highest concentration was 50 µM.

CNR1 = molecular target: T5, CNR1 (Homo sapiens, UniProt P21554)
T5 construct: host or cells: CHO-K1
Method: as §2, §3

CNR2 = molecular target: T6, CNR2 (Homo sapiens, UniProt P34972)
T6 construct: purchased DiscoveRx (Eurofins) gpcrMAX PathHunter β-arrestin panel
Method: as §2, §3

GPR103 = molecular target: T7, GPR103 (Homo sapiens, UniProt Q96P65)
T7 construct: host or cells: CHO-K1
T7 sequence (Q96P65 1-431): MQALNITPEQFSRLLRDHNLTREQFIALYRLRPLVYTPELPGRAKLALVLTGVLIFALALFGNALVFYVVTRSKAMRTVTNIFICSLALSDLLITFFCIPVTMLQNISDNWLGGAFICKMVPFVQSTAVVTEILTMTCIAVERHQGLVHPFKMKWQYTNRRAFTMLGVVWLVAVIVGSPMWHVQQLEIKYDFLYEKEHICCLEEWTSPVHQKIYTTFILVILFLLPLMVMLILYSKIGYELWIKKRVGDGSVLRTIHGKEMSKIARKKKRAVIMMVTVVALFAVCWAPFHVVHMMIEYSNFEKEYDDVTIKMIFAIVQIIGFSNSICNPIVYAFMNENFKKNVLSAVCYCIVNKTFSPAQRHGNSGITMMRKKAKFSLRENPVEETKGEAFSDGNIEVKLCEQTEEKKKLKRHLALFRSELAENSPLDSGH
Method: as §2, §3

GPR119 = molecular target: T8, GPR119 (Homo sapiens, UniProt Q8TDV5)
T8 construct: host or cells: HEK293
Method: as §2, §3

GPR120 = molecular target: T9, GPR120 (Homo sapiens, UniProt Q5NUL3)
T9 construct: host or cells: CHO-K1
T9 sequence (Q5NUL3 1-361): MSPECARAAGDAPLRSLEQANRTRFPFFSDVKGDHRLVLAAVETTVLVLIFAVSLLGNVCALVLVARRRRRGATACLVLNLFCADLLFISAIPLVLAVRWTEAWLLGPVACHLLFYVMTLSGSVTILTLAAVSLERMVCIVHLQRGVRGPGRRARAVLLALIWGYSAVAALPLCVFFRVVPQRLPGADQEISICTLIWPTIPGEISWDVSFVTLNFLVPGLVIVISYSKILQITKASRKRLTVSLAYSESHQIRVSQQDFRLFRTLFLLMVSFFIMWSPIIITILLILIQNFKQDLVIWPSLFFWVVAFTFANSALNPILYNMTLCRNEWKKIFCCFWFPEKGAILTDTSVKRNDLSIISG
Method: as §2, §3

HTR2A = molecular target: T10, HTR2A (Homo sapiens, UniProt P28223)
T10 construct: host or cells: U2OS
Method: as §2, §3

HTR2C = molecular target: T11, HTR2C (Homo sapiens, UniProt P28335)
T11 construct: β-galactosidase enzyme fragment for EFC (ProLink by own knowledge); host or cells: U2OS
T11 sequence (P28335 33-458): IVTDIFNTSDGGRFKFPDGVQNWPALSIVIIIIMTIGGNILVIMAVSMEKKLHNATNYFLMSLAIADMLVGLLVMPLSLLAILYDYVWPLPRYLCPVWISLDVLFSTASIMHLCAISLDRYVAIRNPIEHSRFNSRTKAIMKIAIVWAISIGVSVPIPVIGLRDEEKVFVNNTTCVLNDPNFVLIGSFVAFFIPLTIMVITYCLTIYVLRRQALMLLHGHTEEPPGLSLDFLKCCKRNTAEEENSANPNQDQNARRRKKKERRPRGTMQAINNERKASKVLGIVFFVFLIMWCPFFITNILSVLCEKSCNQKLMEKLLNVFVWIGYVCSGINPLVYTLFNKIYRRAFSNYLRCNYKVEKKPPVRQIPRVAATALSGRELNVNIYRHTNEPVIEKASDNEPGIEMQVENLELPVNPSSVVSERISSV
Method: as §2, §3

NPSR1b = molecular target: T12, NPSR1b (Homo sapiens, UniProt Q6W5P4)
T12 construct: β-galactosidase enzyme fragment for EFC (ProLink by own knowledge); host or cells: U2OS
Method: as §2, §3

[1] = antagonist dose–response, 10-point, CHO-K1 cells, 30 min
[2] = antagonist mode (% inhibition), 20 µM
[3] = antagonist dose–response, 10-point, U2OS cells, 30 min

T5 sequence (P21554 whole entry): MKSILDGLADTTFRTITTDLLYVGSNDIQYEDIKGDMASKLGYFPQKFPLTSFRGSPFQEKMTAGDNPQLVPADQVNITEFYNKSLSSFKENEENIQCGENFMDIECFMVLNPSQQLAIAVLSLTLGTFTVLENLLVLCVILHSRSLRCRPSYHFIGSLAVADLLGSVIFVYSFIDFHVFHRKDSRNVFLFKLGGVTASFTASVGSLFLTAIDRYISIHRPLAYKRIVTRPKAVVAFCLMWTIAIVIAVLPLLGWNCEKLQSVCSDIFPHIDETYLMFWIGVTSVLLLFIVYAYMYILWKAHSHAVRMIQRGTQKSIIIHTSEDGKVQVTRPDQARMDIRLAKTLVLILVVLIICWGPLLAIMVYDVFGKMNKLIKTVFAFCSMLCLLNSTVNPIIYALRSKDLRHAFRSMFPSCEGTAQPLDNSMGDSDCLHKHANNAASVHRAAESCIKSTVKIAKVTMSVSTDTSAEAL
T10 sequence (P28223 whole entry): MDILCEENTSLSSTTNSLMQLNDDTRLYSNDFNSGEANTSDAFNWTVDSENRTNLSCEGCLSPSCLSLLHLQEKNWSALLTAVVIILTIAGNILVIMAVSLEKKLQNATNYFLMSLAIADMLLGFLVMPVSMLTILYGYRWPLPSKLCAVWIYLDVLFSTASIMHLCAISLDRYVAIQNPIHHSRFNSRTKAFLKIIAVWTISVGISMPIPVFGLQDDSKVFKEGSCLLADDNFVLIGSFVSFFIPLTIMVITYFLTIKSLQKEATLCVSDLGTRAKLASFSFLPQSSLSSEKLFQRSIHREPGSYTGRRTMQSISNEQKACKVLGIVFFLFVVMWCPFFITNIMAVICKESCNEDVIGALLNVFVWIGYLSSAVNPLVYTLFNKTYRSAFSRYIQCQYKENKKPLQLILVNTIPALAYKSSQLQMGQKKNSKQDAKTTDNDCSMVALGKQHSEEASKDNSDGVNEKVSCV
T12 sequence (Q6W5P4 1-377 isoform Q6W5P4-4): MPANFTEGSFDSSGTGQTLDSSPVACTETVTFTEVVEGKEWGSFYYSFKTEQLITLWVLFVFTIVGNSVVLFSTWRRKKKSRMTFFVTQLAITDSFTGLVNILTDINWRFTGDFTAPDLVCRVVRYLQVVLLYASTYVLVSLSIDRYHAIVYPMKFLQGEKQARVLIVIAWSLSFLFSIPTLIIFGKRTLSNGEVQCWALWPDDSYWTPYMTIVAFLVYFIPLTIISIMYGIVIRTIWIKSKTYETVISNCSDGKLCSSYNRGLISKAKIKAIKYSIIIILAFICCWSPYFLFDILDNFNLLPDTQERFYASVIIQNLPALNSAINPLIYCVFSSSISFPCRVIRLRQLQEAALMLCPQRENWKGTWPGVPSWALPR
T8 sequence (Q8TDV5 whole entry): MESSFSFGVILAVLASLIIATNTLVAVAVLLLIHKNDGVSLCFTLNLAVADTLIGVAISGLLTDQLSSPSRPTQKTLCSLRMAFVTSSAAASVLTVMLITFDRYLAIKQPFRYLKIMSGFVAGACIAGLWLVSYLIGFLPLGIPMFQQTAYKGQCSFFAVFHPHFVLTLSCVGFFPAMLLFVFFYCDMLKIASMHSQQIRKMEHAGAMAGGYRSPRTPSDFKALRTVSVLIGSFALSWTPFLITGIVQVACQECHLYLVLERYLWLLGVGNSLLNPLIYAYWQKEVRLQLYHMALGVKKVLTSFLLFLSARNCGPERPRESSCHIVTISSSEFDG
T6 sequence (P34972 whole entry): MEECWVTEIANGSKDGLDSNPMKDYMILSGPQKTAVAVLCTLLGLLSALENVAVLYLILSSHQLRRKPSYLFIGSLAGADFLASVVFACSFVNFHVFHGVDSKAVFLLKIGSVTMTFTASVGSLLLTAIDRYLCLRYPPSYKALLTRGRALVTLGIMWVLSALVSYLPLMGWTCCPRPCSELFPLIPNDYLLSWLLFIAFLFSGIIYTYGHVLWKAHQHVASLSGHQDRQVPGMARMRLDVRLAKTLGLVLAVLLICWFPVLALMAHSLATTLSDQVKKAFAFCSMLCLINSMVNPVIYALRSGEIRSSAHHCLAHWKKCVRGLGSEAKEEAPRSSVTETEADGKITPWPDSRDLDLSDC
T2 sequence (P35372 whole entry): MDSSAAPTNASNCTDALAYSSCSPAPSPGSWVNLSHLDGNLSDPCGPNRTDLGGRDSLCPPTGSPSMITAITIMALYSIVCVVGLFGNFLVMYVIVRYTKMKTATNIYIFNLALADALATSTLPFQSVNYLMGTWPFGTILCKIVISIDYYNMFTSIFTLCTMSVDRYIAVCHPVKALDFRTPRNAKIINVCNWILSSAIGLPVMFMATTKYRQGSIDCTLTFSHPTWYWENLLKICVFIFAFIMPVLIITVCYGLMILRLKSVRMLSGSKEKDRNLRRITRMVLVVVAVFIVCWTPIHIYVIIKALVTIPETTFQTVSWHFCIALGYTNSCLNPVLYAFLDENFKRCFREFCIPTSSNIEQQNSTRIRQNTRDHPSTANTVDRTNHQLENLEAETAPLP
T1 sequence (P21918 whole entry): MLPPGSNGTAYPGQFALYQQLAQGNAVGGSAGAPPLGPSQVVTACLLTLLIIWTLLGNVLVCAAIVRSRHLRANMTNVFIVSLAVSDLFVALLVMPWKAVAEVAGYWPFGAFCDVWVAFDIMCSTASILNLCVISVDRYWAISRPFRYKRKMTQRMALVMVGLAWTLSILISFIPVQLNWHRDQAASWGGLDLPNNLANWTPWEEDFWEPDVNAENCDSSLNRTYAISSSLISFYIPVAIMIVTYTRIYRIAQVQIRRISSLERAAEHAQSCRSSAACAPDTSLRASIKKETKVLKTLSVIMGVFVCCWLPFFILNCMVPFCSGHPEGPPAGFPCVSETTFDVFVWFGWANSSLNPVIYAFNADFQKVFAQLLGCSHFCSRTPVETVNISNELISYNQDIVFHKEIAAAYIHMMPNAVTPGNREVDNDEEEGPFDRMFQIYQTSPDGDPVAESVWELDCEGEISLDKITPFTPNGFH
T3 sequence (P49190 25-550): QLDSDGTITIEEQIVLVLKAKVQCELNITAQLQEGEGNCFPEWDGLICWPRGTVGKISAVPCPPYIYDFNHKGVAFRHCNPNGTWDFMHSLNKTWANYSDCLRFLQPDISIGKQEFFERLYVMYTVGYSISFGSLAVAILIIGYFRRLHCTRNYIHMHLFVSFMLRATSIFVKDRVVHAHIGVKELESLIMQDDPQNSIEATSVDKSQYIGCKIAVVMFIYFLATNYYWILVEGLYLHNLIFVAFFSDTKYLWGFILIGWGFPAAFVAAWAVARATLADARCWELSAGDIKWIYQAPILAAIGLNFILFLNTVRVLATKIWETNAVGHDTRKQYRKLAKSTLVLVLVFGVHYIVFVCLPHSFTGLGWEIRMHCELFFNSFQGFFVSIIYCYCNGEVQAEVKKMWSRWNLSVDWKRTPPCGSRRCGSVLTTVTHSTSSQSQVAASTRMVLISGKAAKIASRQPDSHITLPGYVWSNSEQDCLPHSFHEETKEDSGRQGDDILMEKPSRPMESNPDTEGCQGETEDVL

CC(=O)N[C@@H](CCCC#C/C=C/Cl)CCCCCCC(Cl)Cl [Compound 4, taveuniamide F]
inhibition at 20 µM (DRD5): 2.7%
inhibition at 20 µM (OPRM1): -1%
inhibition at 20 µM (PTHR2): 30.4%
IC50 (CCR9; [1]): 7.4 µM and 7.38 µM
inhibition (CCR9; [2]): ≥ 80%
inhibition at 20 µM (CCR9; [2]): 98.9%
IC50 (CNR1; [1]): 1.84 µM
inhibition (CNR1; [2]): ≥ 80%
inhibition at 20 µM (CNR1; [2]): 84%
selectivity for CNR1 over CNR2 (CNR1; antagonist screen (β-arrestin), CNR1 vs. CNR2): 6.8 fold
inhibition at 20 µM (CNR2): 48.6%
IC50 (GPR103; [1]): 14 µM and 14.1 µM
inhibition (GPR103; [2]): ≥ 80%
inhibition at 20 µM (GPR103; [2]): 79.8%
IC50 (GPR119; antagonist dose–response, 10-point, HEK293 cells, 30 min): 11.7 µM
inhibition (GPR119; [2]): 114% and ≥ 80%
IC50 (GPR120; [1]): 4.7 µM and 4.72 µM
inhibition (GPR120; [2]): ≥ 80%
inhibition at 20 µM (GPR120; [2]): 96.9%
IC50 (HTR2A; [3]): 4.8 µM and 4.83 µM
inhibition (HTR2A; [2]): ≥ 80%
inhibition at 20 µM (HTR2A; [2]): 84.9%
IC50 (HTR2C; [3]): > 50 µM
inhibition (HTR2C; [2]): ≥ 80%
inhibition at 20 µM (HTR2C; [2]): 99.1%
IC50 (NPSR1b; [3]): 4.4 µM and 4.36 µM
inhibition (NPSR1b; [2]): 102% and ≥ 80%

— publication PMC10817531, “Chlorinated Enyne Fatty Acid Amides from a Marine Cyanobacterium: Discovery of Taveuniamides L-M and Pharmacological Characterization of Taveuniamide F as a GPCR Antagonist with CNR1 Selectivity” (Marine Drugs, 2023)
